# Key:
# Assay in all cases: relative viability (nuclei count vs DMSO), 5 days (fraction); higher = more cells survive
# [1] = tested on: COR-L 105
# Outline: (§1)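 Relative viability divides the nuclei count in treated wells by that in vehicle wells. Lung cancer cell lines were seeded in 1536-well plates, dosed by pin tool the next day, and fixed and stained after 5 days in one step with final 0.05% Triton X-100, 1% formaldehyde and 1 ug/ml Hoechst. Dosing was a single drug or a fixed anchor-drug dose plus five library-drug doses (not always all listed) in √10 steps, and values are medians of duplicate plates imaged at 4×.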
# [2] = tested on: PC-14
# Outline: as §1
# [3] = tested on: NCI-H1734
# Outline: as §1
# [4] = tested on: NCI-H2228
# Outline: as §1
# [5] = tested on: NCI-H1395
# Outline: as §1
# [6] = tested on: LU99A
# Outline: as §1
# [7] = tested on: HCC-366
# Outline: as §1
# [8] = tested on: NCI-H520
# Outline: as §1
# [9] = tested on: NCI-H1666
# Outline: as §1
# [10] = tested on: LC-2-ad
# Outline: as §1
# [11] = tested on: PC-3 [JPC-3]
# Outline: as §1
# [12] = tested on: NCI-H1944
# Outline: as §1
# [13] = tested on: NCI-H838
# Outline: as §1
# [14] = tested on: HARA
# Outline: as §1
# [15] = tested on: NCI-H1975
# Outline: as §1
# [16] = tested on: HCC-15
# Outline: as §1
# [17] = tested on: NCI-H1993
# Outline: as §1
# [18] = tested on: H3255
# Outline: as §1
# [19] = tested on: NCI-H3122
# Outline: as §1
# [20] = tested on: NCI-H661
# Outline: as §1
# [21] = tested on: SK-LU-1
# Outline: as §1
# [22] = tested on: CAL-12T
# Outline: as §1
# [23] = tested on: NCI-H647
# Outline: as §1
structure (smiles),measurement,setting,value
O=c1[nH]c2ccccc2n1C1CCN(CCCC(c2ccc(F)cc2)c2ccc(F)cc2)CC1 [Pimozide] + CS(=O)(=O)N1CCN(Cc2cc3nc(-c4cccc5[nH]ncc45)nc(N4CCOCC4)c3s2)CC1 [Pictilisib] (partner 1 µM),relative viability,[1]; first compound 0.253 µM,0.507
same,relative viability,[1]; first compound 0.8 µM,0.449
same,relative viability,[1]; first compound 2.53 µM,0.338
same,relative viability,[1]; first compound 8 µM,0.353
same,relative viability,[2]; first compound 0.253 µM,0.631
same,relative viability,[2]; first compound 0.8 µM,0.738
same,relative viability,[2]; first compound 2.53 µM,0.716
same,relative viability,[2]; first compound 8 µM,0.634
same,relative viability,[3]; first compound 0.08 µM,0.45
same,relative viability,[3]; first compound 0.253 µM,0.444
same,relative viability,[3]; first compound 0.8 µM,0.489
same,relative viability,[3]; first compound 2.53 µM,0.411
same,relative viability,[3]; first compound 8 µM,0.46
same,relative viability,[4]; first compound 0.08 µM,0.378
same,relative viability,[4]; first compound 0.253 µM,0.386
same,relative viability,[4]; first compound 0.8 µM,0.312
same,relative viability,[4]; first compound 2.53 µM,0.34
same,relative viability,[4]; first compound 8 µM,0.29
same,relative viability,[5]; first compound 0.08 µM,0.647
same,relative viability,[5]; first compound 0.253 µM,0.598
same,relative viability,[5]; first compound 0.8 µM,0.634
same,relative viability,[5]; first compound 2.53 µM,0.679
same,relative viability,[5]; first compound 8 µM,0.681
same,relative viability,[6]; first compound 0.08 µM,0.344
same,relative viability,[6]; first compound 0.253 µM,0.284
same,relative viability,[6]; first compound 0.8 µM,0.314
same,relative viability,[6]; first compound 2.53 µM,0.302
same,relative viability,[6]; first compound 8 µM,0.334
same,relative viability,[7]; first compound 0.08 µM,0.164
same,relative viability,[7]; first compound 0.253 µM,0.154
same,relative viability,[7]; first compound 0.8 µM,0.165
same,relative viability,[7]; first compound 2.53 µM,0.0834
same,relative viability,[7]; first compound 8 µM,0.118
same,relative viability,[8]; first compound 0.08 µM,0.294
same,relative viability,[8]; first compound 0.253 µM,0.337
same,relative viability,[8]; first compound 0.8 µM,0.248
same,relative viability,[8]; first compound 2.53 µM,0.256
same,relative viability,[8]; first compound 8 µM,0.259
same,relative viability,[9]; first compound 0.08 µM,0.323
same,relative viability,[9]; first compound 0.253 µM,0.512
same,relative viability,[9]; first compound 0.8 µM,0.439
same,relative viability,[9]; first compound 2.53 µM,0.385
same,relative viability,[9]; first compound 8 µM,0.465
same,relative viability,[10]; first compound 0.08 µM,0.594
same,relative viability,[10]; first compound 0.253 µM,0.405
same,relative viability,[10]; first compound 0.8 µM,0.461
same,relative viability,[10]; first compound 2.53 µM,0.553
same,relative viability,[10]; first compound 8 µM,0.305
same,relative viability,[11]; first compound 0.253 µM,0.695
same,relative viability,[11]; first compound 0.8 µM,0.654
same,relative viability,[11]; first compound 2.53 µM,0.698
same,relative viability,[11]; first compound 8 µM,0.686
same,relative viability,[12]; first compound 0.08 µM,0.331
same,relative viability,[12]; first compound 0.253 µM,0.337
same,relative viability,[12]; first compound 0.8 µM,0.325
same,relative viability,[12]; first compound 2.53 µM,0.35
same,relative viability,[12]; first compound 8 µM,0.33
same,relative viability,[13]; first compound 0.08 µM,0.484
same,relative viability,[13]; first compound 0.253 µM,0.454
same,relative viability,[13]; first compound 0.8 µM,0.444
same,relative viability,[13]; first compound 2.53 µM,0.447
same,relative viability,[13]; first compound 8 µM,0.427
same,relative viability,[14]; first compound 0.08 µM,0.252
same,relative viability,[14]; first compound 0.253 µM,0.423
same,relative viability,[14]; first compound 0.8 µM,0.595
same,relative viability,[14]; first compound 2.53 µM,0.351
same,relative viability,[14]; first compound 8 µM,0.368
same,relative viability,[15]; first compound 0.08 µM,0.282
same,relative viability,[15]; first compound 0.253 µM,0.262
same,relative viability,[15]; first compound 0.8 µM,0.297
same,relative viability,[15]; first compound 2.53 µM,0.28
same,relative viability,[15]; first compound 8 µM,0.202
same,relative viability,[16]; first compound 0.08 µM,0.809
same,relative viability,[16]; first compound 0.253 µM,0.767
same,relative viability,[16]; first compound 0.8 µM,0.616
same,relative viability,[16]; first compound 2.53 µM,0.709
same,relative viability,[16]; first compound 8 µM,0.749
same,relative viability,[17]; first compound 0.08 µM,0.751
same,relative viability,[17]; first compound 0.253 µM,0.902
same,relative viability,[17]; first compound 0.8 µM,0.778
same,relative viability,[17]; first compound 2.53 µM,0.91
same,relative viability,[17]; first compound 8 µM,0.846
same,relative viability,[18]; first compound 0.253 µM,0.406
same,relative viability,[18]; first compound 0.8 µM,0.575
same,relative viability,[18]; first compound 2.53 µM,0.456
same,relative viability,[18]; first compound 8 µM,0.506
same,relative viability,[19]; first compound 0.08 µM,0.523
same,relative viability,[19]; first compound 0.253 µM,0.588
same,relative viability,[19]; first compound 0.8 µM,0.514
same,relative viability,[19]; first compound 2.53 µM,0.594
same,relative viability,[19]; first compound 8 µM,0.573
same,relative viability,[20]; first compound 0.08 µM,0.447
same,relative viability,[20]; first compound 0.253 µM,0.337
same,relative viability,[20]; first compound 0.8 µM,0.454
same,relative viability,[20]; first compound 2.53 µM,0.381
same,relative viability,[20]; first compound 8 µM,0.408
same,relative viability,[21]; first compound 0.08 µM,0.643
same,relative viability,[21]; first compound 0.253 µM,0.566
same,relative viability,[21]; first compound 0.8 µM,0.551
same,relative viability,[21]; first compound 2.53 µM,0.436
same,relative viability,[21]; first compound 8 µM,0.469
same,relative viability,[22]; first compound 0.08 µM,0.399
same,relative viability,[22]; first compound 0.253 µM,0.244
same,relative viability,[22]; first compound 0.8 µM,0.418
same,relative viability,[22]; first compound 2.53 µM,0.462
same,relative viability,[22]; first compound 8 µM,0.332
same,relative viability,[23]; first compound 0.08 µM,0.389
same,relative viability,[23]; first compound 0.253 µM,0.39
same,relative viability,[23]; first compound 0.8 µM,0.448
same,relative viability,[23]; first compound 2.53 µM,0.383
same,relative viability,[23]; first compound 8 µM,0.334

# — the supplement of paper PMC10307832
